Measured values from patent US4507487A, “Chemical compounds” (Bristol-Myers Company, priority 1983, dated 1985).
Values after ≈ are worked out from the molar mass of the structure shown. Like-named read-outs stand apart in the source and are kept apart here.

Experiments:
[1] = Mouse blood levels after single intramuscular injection; type: in vivo, mice; settings: for concentration at 10 min / concentration at 20 min / concentration at 0.5 h / concentration at 40 min / concentration at 50 min / concentration at 1 h / concentration at 1.5 h / concentration at 2 h: read-out: Mouse Blood Level; for concentration at 0.5 h: 30 minutes; for concentration at 1 h: 60 minutes; for concentration at 1.5 h: 90 minutes; for concentration at 2 h: 120 minutes
Protocol: The absorption of some of the preferred compounds were determined in mice following a single intramuscular injection of the test compound (dissolved in 0.1M phosphate buffer; pH 7) at a dosage of 10, 20 or 40 mg/kg. Blood samples were collected from the orbital sinuses into heparinized capillary tubes and assayed in Nutrient Agar (pH 6.6) using E. coli Ess-22-31 as the test organism. The blood levels at various time intervals, the half-life values (t1/2) and the areas under the curve (AUC) are shown in Table 3.

[2] = system: Penicillinresistant S. aureus; assay: MIC, two-fold serial agar dilution in Mueller-Hinton agar, group (G+)-Ib; type: cell-based; settings: Staphylococcus aureus, read-out: Geometric Mean of MIC
Protocol: (§1) In the primary evaluation of the compounds of this invention, the Minimum Inhibitory Concentrations (MIC's) of the compounds were determined by the two-fold serial agar dilution method in Mueller-Hinton agar against 32 strains of test organisms in six groups.
(G+)Ib: Penicillinresistant S. aureus (5 strains)

[3] = system: Cephalothinresistant E. coli and Kl. pneumoniae; assay: MIC, two-fold serial agar dilution in Mueller-Hinton agar, group (G-)-Ib; type: cell-based; settings: read-out: Geometric Mean of MIC
Protocol: as §1
(G-)Ib: Cephalothinresistant E. coli (3 strains) and Kl. pneumoniae (3

Ps. aeruginosa = assay: MIC, two-fold serial agar dilution in Mueller-Hinton agar, group (G-)-III; type: cell-based; settings: Pseudomonas aeruginosa, Ps. aeruginosa (6 strains), read-out: Geometric Mean of MIC
Protocol: as §1

[4] = system: Penicillinsensitive S. aureus; assay: MIC, two-fold serial agar dilution in Mueller-Hinton agar, group (G+)-Ia; type: cell-based; settings: Staphylococcus aureus; (G+)-Ia, penicillin-sensitive S. aureus (5 strains); read-out: Geometric Mean of MIC
Protocol: as §1

[5] = system: M. morganii, Ent. cloacae and Ser. marcescens; assay: MIC, two-fold serial agar dilution in Mueller-Hinton agar, group (G-)-II; type: cell-based; settings: read-out: Geometric Mean of MIC
Protocol: as §1
(G-)II: M. morganii (1 strain), Ent. cloacae (2 strains) and Ser.

K. pneumoniae D11 = assay: MIC against specific test organism; type: cell-based; settings: Klebsiella pneumoniae, read-out: Minimum Inhibitory Concentration
Protocol: as §1
(§2) The test method was as described for Table 1.

K. pneumoniae A9867 = assay: MIC against specific test organism; type: cell-based; settings: Klebsiella pneumoniae
Protocol: as §1, §2

Pr. mirabilis A9554 = assay: MIC against specific test organism; type: cell-based; settings: Proteus mirabilis, read-out: Minimum Inhibitory Concentration
Protocol: as §1, §2

E. coli Juhl = assay: MIC against specific test organism; type: cell-based; settings: Escherichia coli, read-out: Minimum Inhibitory Concentration
Protocol: as §1, §2

Ps. aeruginosa A15150 = assay: MIC against specific test organism; type: cell-based; settings: Pseudomonas aeruginosa, read-out: Minimum Inhibitory Concentration
Protocol: as §1, §2

S. aureus BX-1633-2 = assay: MIC against specific test organism; type: cell-based; settings: Staphylococcus aureus, BX16332; S. aureus BX-1633-2, penicillin-resistant strain; read-out: Minimum Inhibitory Concentration
Protocol: as §1, §2

Ps. aeruginosa A20717 = assay: MIC against specific test organism; type: cell-based; settings: Pseudomonas aeruginosa, read-out: Minimum Inhibitory Concentration
Protocol: as §1, §2

Ps. aeruginosa A9843 = assay: MIC against specific test organism; type: cell-based; settings: Pseudomonas aeruginosa, read-out: Minimum Inhibitory Concentration
Protocol: as §1, §2

S. aureus Smith = assay: MIC against specific test organism; type: cell-based; settings: Staphylococcus aureus, read-out: Minimum Inhibitory Concentration
Protocol: as §1, §2

M. morganii A9553 = assay: MIC against specific test organism; type: cell-based; settings: Morganella morganii, read-out: Minimum Inhibitory Concentration
Protocol: as §1, §2

Ent. cloacae A9656 = assay: MIC against specific test organism; type: cell-based; settings: Enterobacter cloacae, read-out: Minimum Inhibitory Concentration
Protocol: as §1, §2

E. coli A15164 = assay: MIC against specific test organism; type: cell-based; settings: Escherichia coli; E. coli A15164, cephalothin-resistant strain; read-out: Minimum Inhibitory Concentration
Protocol: as §1, §2

Ser. marcescens A20019 = assay: MIC against specific test organism; type: cell-based; settings: Serratia marcescens, read-out: Minimum Inhibitory Concentration
Protocol: as §1, §2

[6] = system: Cephalothinsensitive E. coli, Kl. pneumoniae and Pr. mirabilis; assay: MIC, two-fold serial agar dilution in Mueller-Hinton agar, group (G-)-Ia; type: cell-based; settings: (G-)-Ia, cephalothin-sensitive E. coli (2), Kl. pneumoniae (1), Pr. mirabilis (2 strains); read-out: Geometric Mean of MIC
Protocol: as §1
(G-)Ia: Cephalothinsensitive E. coli (2 strains), Kl. pneumoniae (1
strain) and Pr. mirabilis (2 strains)

In the case of `CO/N=C(\C(=O)NC1C(=O)N2C(C(=O)[O-])=C(C[n+]3ccsc3SC)CS[C@H]12)c1csc(N)n1` (some centres unmarked) [Example 3, 7-[(Z)-2-(2-Aminothiazol-4-yl)-2-(methoxyimino)acetamido]-3-(2-methylthiothiazolio)methyl-3-cephem-4-carboxylate], the AUC ([1]; 10 mg/kg im) is reported as 18000 ng·h/mL, the half-life ([1]; 10 mg/kg im) is reported as 47 min and the concentration at 10 min ([1]; 10 mg/kg im) is reported as 14000 ng/mL. The concentration at 20 min ([1]; 10 mg/kg im) was 14000 ng/mL, the concentration at 0.5 h ([1]; 10 mg/kg im) was 12000 ng/mL and the concentration at 40 min ([1]; 10 mg/kg im) was 10000 ng/mL. For the same compound, the concentration at 50 min ([1]; 10 mg/kg im) was 9800 ng/mL, the concentration at 1 h ([1]; 10 mg/kg im) was 6800 ng/mL and the concentration at 1.5 h ([1]; 10 mg/kg im) was 5200 ng/mL. It also gave a concentration at 2 h ([1]; 10 mg/kg im) of 3200 ng/mL, an AUC ([1]; 20 mg/kg im) of 29000 ng·h/mL and a half-life ([1]; 20 mg/kg im) of 46 min. The concentration at 10 min ([1]; 20 mg/kg im) was 24000 ng/mL, the concentration at 20 min ([1]; 20 mg/kg im) was 22000 ng/mL and the concentration at 0.5 h ([1]; 20 mg/kg im) was 20000 ng/mL. For the same compound, the concentration at 40 min ([1]; 20 mg/kg im) was 17000 ng/mL, the concentration at 50 min ([1]; 20 mg/kg im) was 13000 ng/mL and the concentration at 1 h ([1]; 20 mg/kg im) was 11000 ng/mL. For the same compound, the concentration at 1.5 h ([1]; 20 mg/kg im) was 9500 ng/mL, the concentration at 2 h ([1]; 20 mg/kg im) was 4500 ng/mL and the AUC ([1]; 40 mg/kg im) was 60000 ng·h/mL. The half-life ([1]; 40 mg/kg im) was 54 min, the concentration at 10 min ([1]; 40 mg/kg im) was 48000 ng/mL and the concentration at 20 min ([1]; 40 mg/kg im) was 36000 ng/mL. It also gave a concentration at 0.5 h ([1]; 40 mg/kg im) of 32000 ng/mL, a concentration at 40 min ([1]; 40 mg/kg im) of 32000 ng/mL and a concentration at 50 min ([1]; 40 mg/kg im) of 24000 ng/mL. It also gave a concentration at 1 h ([1]; 40 mg/kg im) of 20000 ng/mL, a concentration at 1.5 h ([1]; 40 mg/kg im) of 15000 ng/mL and a concentration at 2 h ([1]; 40 mg/kg im) of 10000 ng/mL. The MIC [2] was 0.8 µg/mL (≈ 1.52 µM), the MIC [3] was 0.15 µg/mL (≈ 0.285 µM) and the MIC (Ps. aeruginosa) was 2 µg/mL (≈ 3.8 µM). It also gave an MIC [4] of 0.23 µg/mL (≈ 0.437 µM), an MIC [5] of 0.14 µg/mL (≈ 0.266 µM) and an MIC (K. pneumoniae D11) of 0.025 µg/mL (≈ 0.0475 µM). For the same compound, the MIC (K. pneumoniae A9867; K. pneumoniae A9867, cephalothin-resistant strain, read-out: Minimum Inhibitory Concentration) was 0.8 µg/mL (≈ 1.52 µM), the MIC (Pr. mirabilis A9554) was 0.05 µg/mL (≈ 0.0949 µM) and the MIC (E. coli Juhl) was 0.025 µg/mL (≈ 0.0475 µM). For the same compound, the MIC (Ps. aeruginosa A15150) was 0.8 µg/mL (≈ 1.52 µM), the MIC (S. aureus BX-1633-2) was 0.8 µg/mL (≈ 1.52 µM) and the MIC (Ps. aeruginosa A20717) was 6.3 µg/mL (≈ 12 µM). The MIC (Ps. aeruginosa A9843) was 3.1 µg/mL (≈ 5.89 µM), the MIC (S. aureus Smith) was 0.4 µg/mL (≈ 0.76 µM) and the MIC (M. morganii A9553) was 0.2 µg/mL (≈ 0.38 µM). It also gave an MIC (Ent. cloacae A9656) of 0.05 µg/mL (≈ 0.0949 µM), an MIC (E. coli A15164) of 0.1 µg/mL (≈ 0.19 µM) and an MIC (Ser. marcescens A20019) of 0.025 µg/mL (≈ 0.0475 µM). For the same compound, the MIC [6] was 0.022 µg/mL (≈ 0.0418 µM).

`CSc1scc[n+]1CC1=C(C(=O)[O-])N2C(=O)C(NC(=O)/C(=N\OC(C)(C)C(=O)O)c3csc(N)n3)[C@H]2SC1` (some centres unmarked) [Example 1, 7-[(Z)-2-(2-Aminothiazol-4-yl)-2-(2-carboxyprop-2-oxyimino)acetamido]-3-(2-methylthiothiazolio)methyl-3-cephem-4-carboxylate] gave an AUC ([1]; 10 mg/kg im) of 5000 ng·h/mL, a half-life ([1]; 10 mg/kg im) of 15 min and a concentration at 10 min ([1]; 10 mg/kg im) of 12000 ng/mL. It also gave a concentration at 20 min ([1]; 10 mg/kg im) of 7400 ng/mL, a concentration at 0.5 h ([1]; 10 mg/kg im) of 4700 ng/mL and a concentration at 40 min ([1]; 10 mg/kg im) of less than 3000 ng/mL. For the same compound, the AUC ([1]; 20 mg/kg im) was 16000 ng·h/mL, the half-life ([1]; 20 mg/kg im) was 14 min and the concentration at 10 min ([1]; 20 mg/kg im) was 33000 ng/mL. It also gave a concentration at 20 min ([1]; 20 mg/kg im) of 24000 ng/mL, a concentration at 0.5 h ([1]; 20 mg/kg im) of 18000 ng/mL and a concentration at 40 min ([1]; 20 mg/kg im) of 9400 ng/mL. For the same compound, the concentration at 50 min ([1]; 20 mg/kg im) was 6700 ng/mL, the concentration at 1 h ([1]; 20 mg/kg im) was 3500 ng/mL and the concentration at 1.5 h ([1]; 20 mg/kg im) was less than 3000 ng/mL. For the same compound, the AUC ([1]; 40 mg/kg im) was 25000 ng·h/mL, the half-life ([1]; 40 mg/kg im) was 13 min and the concentration at 10 min ([1]; 40 mg/kg im) was 51000 ng/mL. It also gave a concentration at 20 min ([1]; 40 mg/kg im) of 40000 ng/mL, a concentration at 0.5 h ([1]; 40 mg/kg im) of 29000 ng/mL and a concentration at 40 min ([1]; 40 mg/kg im) of 15000 ng/mL. For the same compound, the concentration at 50 min ([1]; 40 mg/kg im) was 9000 ng/mL, the concentration at 1 h ([1]; 40 mg/kg im) was 4600 ng/mL and the concentration at 1.5 h ([1]; 40 mg/kg im) was less than 3000 ng/mL. The MIC [2] was 3.6 µg/mL (≈ 6.01 µM), the MIC [3] was 0.69 µg/mL (≈ 1.15 µM) and the MIC (Ps. aeruginosa) was 1.4 µg/mL (≈ 2.34 µM). It also gave an MIC [4] of 1.2 µg/mL (≈ 2 µM), an MIC ([5]; (G-)-II, M. morganii (1), Ent. cloacae (2), Ser. marcescens (2 strains)) of 0.24 µg/mL (≈ 0.401 µM) and an MIC (K. pneumoniae D11) of 0.1 µg/mL (≈ 0.167 µM). For the same compound, the MIC (K. pneumoniae A9867; A9867, read-out: Minimum Inhibitory Concentration) was 1.6 µg/mL (≈ 2.67 µM), the MIC (Pr. mirabilis A9554) was 0.05 µg/mL (≈ 0.0835 µM) and the MIC (E. coli Juhl) was 0.1 µg/mL (≈ 0.167 µM). The MIC (Ps. aeruginosa A15150) was 0.8 µg/mL (≈ 1.34 µM), the MIC (S. aureus BX-1633-2) was 3.1 µg/mL (≈ 5.18 µM) and the MIC (Ps. aeruginosa A20717) was 3.1 µg/mL (≈ 5.18 µM). It also gave an MIC (Ps. aeruginosa A9843) of 1.6 µg/mL (≈ 2.67 µM), an MIC (S. aureus Smith) of 1.6 µg/mL (≈ 2.67 µM) and an MIC (M. morganii A9553) of 0.1 µg/mL (≈ 0.167 µM). It also gave an MIC (Ent. cloacae A9656) of 0.1 µg/mL (≈ 0.167 µM), an MIC (E. coli A15164) of 0.8 µg/mL (≈ 1.34 µM) and an MIC (Ser. marcescens A20019) of 0.1 µg/mL (≈ 0.167 µM). For the same compound, the MIC [6] was 0.038 µg/mL (≈ 0.0635 µM).
